Reference: publication PMC5218480 (PLoS ONE, 2017)

Test system: MV-4-11 cells
Assay: Gene expression microarray analysis (Affymetrix PrimeView) and GSEA
Type: cell-based, human
Parameters: RFU PODN (11730768_x_at) / Fold change /veh PODN (11730768_x_at) / RFU LINC00158 (11744669_a_at) / Fold change /veh LINC00158 (11744669_a_at) / RFU DUSP10 (11751237_a_at) / Fold change /veh DUSP10 (11751237_a_at) / RFU ID3 (11757404_x_at) / Fold change /veh ID3 (11757404_x_at) / RFU PLEKHG5 (11737974_s_at) / Fold change /veh PLEKHG5 (11737974_s_at) / RFU LRRC4B (11730491_at) / Fold change /veh LRRC4B (11730491_at) / RFU GIMAP4 (11747438_a_at) / Fold change /veh GIMAP4 (11747438_a_at) / RFU KRT8 (11758183_x_at) / Fold change /veh KRT8 (11758183_x_at) / RFU CNN1 (11734310_a_at) / Fold change /veh CNN1 (11734310_a_at) / RFU VPS37D (11726825_at) / Fold change /veh VPS37D (11726825_at) / RFU C10orf10 (11716522_x_at) / Fold change /veh C10orf10 (11716522_x_at) / RFU KIR2DL2 /// KIR2DL4 /// KIR2DL5A /// KIR2DL5B /// KIR2DS1 /// KIR2DS2 /// KIR2DS3 /// KIR2DS4 /// KIR3DL3 /// KIR3DL3 /// KIR3DS1 (11738374_at) / Fold change /veh KIR2DL2 /// KIR2DL4 /// KIR2DL5A /// KIR2DL5B /// KIR2DS1 /// KIR2DS2 /// KIR2DS3 /// KIR2DS4 /// KIR3DL3 /// KIR3DL3 /// KIR3DS1 (11738374_at) / RFU C1QL1 (11718748_at) / Fold change /veh C1QL1 (11718748_at) / RFU TMPRSS4 (11747572_a_at) / Fold change /veh TMPRSS4 (11747572_a_at) / RFU HAMP (11756126_x_at) / Fold change /veh HAMP (11756126_x_at) / RFU RNFT2 (11725882_a_at) / Fold change /veh RNFT2 (11725882_a_at) / RFU NR4A2 (11747474_a_at) / Fold change /veh NR4A2 (11747474_a_at) / RFU ABCC12 (11746883_a_at) / Fold change /veh ABCC12 (11746883_a_at) / RFU TMEM136 (11760407_x_at) / Fold change /veh TMEM136 (11760407_x_at) / RFU CLDN22 /// WWC2 (11732394_at) / Fold change /veh CLDN22 /// WWC2 (11732394_at) / RFU HLA-DPB1 (11760878_x_at) / Fold change /veh HLA-DPB1 (11760878_x_at) / RFU SPINT1 (11716480_a_at) / Fold change /veh SPINT1 (11716480_a_at) / RFU GAP43 (11754022_s_at) / Fold change /veh GAP43 (11754022_s_at) / RFU A4GNT (11735810_at) / Fold change /veh A4GNT (11735810_at) / RFU PRB3 (11715151_x_at) / Fold change /veh PRB3 (11715151_x_at) / RFU TUBB4B (11761932_at) / Fold change /veh TUBB4B (11761932_at) / RFU CAPN14 (11732068_a_at) / Fold change /veh CAPN14 (11732068_a_at) / RFU TMCC2 (11721928_a_at) / Fold change /veh TMCC2 (11721928_a_at) / RFU IRGQ (11745062_a_at) / Fold change /veh IRGQ (11745062_a_at) / RFU FAM174B (11720279_a_at) / Fold change /veh FAM174B (11720279_a_at) / RFU TMPRSS4 (11748680_a_at) / Fold change /veh TMPRSS4 (11748680_a_at) / RFU FAM212B (11763350_a_at) / Fold change /veh FAM212B (11763350_a_at) / RFU PLEKHG5 (11743358_a_at) / Fold change /veh PLEKHG5 (11743358_a_at) / RFU ZSCAN30 (11745921_a_at) / Fold change /veh ZSCAN30 (11745921_a_at) / RFU CMKLR1 (11741424_a_at) / Fold change /veh CMKLR1 (11741424_a_at) / RFU LOC101060620 /// MAPK8IP1 (11723275_at) / Fold change /veh LOC101060620 /// MAPK8IP1 (11723275_at) / RFU SPTSSB (11747773_x_at) / Fold change /veh SPTSSB (11747773_x_at) / RFU PRSS12 (11739890_at) / Fold change /veh PRSS12 (11739890_at) / RFU BIN1 (11741810_x_at) / Fold change /veh BIN1 (11741810_x_at) / RFU WNT11 (11732464_a_at) / Fold change /veh WNT11 (11732464_a_at) / RFU C10orf10 (11716521_a_at) / Fold change /veh C10orf10 (11716521_a_at) / RFU C5orf56 (11738089_at) / Fold change /veh C5orf56 (11738089_at) / RFU CYB561 (11721691_x_at) / Fold change /veh CYB561 (11721691_x_at) / RFU ANKRD19P (11752326_a_at) / Fold change /veh ANKRD19P (11752326_a_at) / RFU OR2T12 /// OR2T33 /// OR2T8 (11738714_s_at) / Fold change /veh OR2T12 /// OR2T33 /// OR2T8 (11738714_s_at) / RFU VCAN (11748164_a_at) / Fold change /veh VCAN (11748164_a_at) / RFU JSRP1 (11732532_at) / Fold change /veh JSRP1 (11732532_at) / RFU KRTAP10-11 (11738290_x_at) / Fold change /veh KRTAP10-11 (11738290_x_at) / RFU MYO3A (11730013_a_at) / Fold change /veh MYO3A (11730013_a_at) / RFU EBF3 (11725865_a_at) / Fold change /veh EBF3 (11725865_a_at) / RFU CAMK2N1 (11719241_x_at) / Fold change /veh CAMK2N1 (11719241_x_at) / RFU C5orf56 (11738088_a_at) / Fold change /veh C5orf56 (11738088_a_at) / RFU OLFML3 (11715873_a_at) / Fold change /veh OLFML3 (11715873_a_at) / RFU LOC100653217 /// NTM (11731650_a_at) / Fold change /veh LOC100653217 /// NTM (11731650_a_at) / RFU MAPK11 (11762145_a_at) / Fold change /veh MAPK11 (11762145_a_at) / RFU FIZ1 (11724087_x_at) / Fold change /veh FIZ1 (11724087_x_at) / RFU OASL (11726364_x_at) / Fold change /veh OASL (11726364_x_at) / RFU SOX15 (11748057_x_at) / Fold change /veh SOX15 (11748057_x_at) / RFU CD79A (11719716_a_at) / Fold change /veh CD79A (11719716_a_at) / RFU HIST1H1D (11736915_at) / Fold change /veh HIST1H1D (11736915_at) / RFU CASKIN2 (11723855_a_at) / Fold change /veh CASKIN2 (11723855_a_at) / RFU LOC730098 (11760151_x_at) / Fold change /veh LOC730098 (11760151_x_at) / RFU OR4N2 (11742367_at) / Fold change /veh OR4N2 (11742367_at) / RFU PRRT2 (11749266_a_at) / Fold change /veh PRRT2 (11749266_a_at) / RFU SNX32 (11753110_a_at) / Fold change /veh SNX32 (11753110_a_at) / RFU CDHR5 (11726645_a_at) / Fold change /veh CDHR5 (11726645_a_at) / RFU RCAN1 (11760418_a_at) / Fold change /veh RCAN1 (11760418_a_at) / RFU FAM167A (11723789_a_at) / Fold change /veh FAM167A (11723789_a_at) / RFU FAM26E (11764081_at) / Fold change /veh FAM26E (11764081_at) / RFU ISYNA1 (11749810_s_at) / Fold change /veh ISYNA1 (11749810_s_at) / RFU ACY1 (11761880_at) / Fold change /veh ACY1 (11761880_at) / RFU 11764098_at / Fold change /veh 11764098_at / RFU SAMD14 (11745864_x_at) / Fold change /veh SAMD14 (11745864_x_at) / RFU NPB (11741838_a_at) / Fold change /veh NPB (11741838_a_at) / RFU TMPRSS6 (11731388_a_at) / Fold change /veh TMPRSS6 (11731388_a_at) / RFU KRTAP10-2 (11738614_at) / Fold change /veh KRTAP10-2 (11738614_at) / RFU ARHGAP8 /// PRR5-ARHGAP8 (11727945_x_at) / Fold change /veh ARHGAP8 /// PRR5-ARHGAP8 (11727945_x_at) / RFU KRTAP5-7 /// NADSYN1 (11734609_at) / Fold change /veh KRTAP5-7 /// NADSYN1 (11734609_at) / RFU RASL12 (11751679_a_at) / Fold change /veh RASL12 (11751679_a_at) / RFU CDKN2B (11736163_a_at) / Fold change /veh CDKN2B (11736163_a_at) / RFU PRF1 (11729649_at) / Fold change /veh PRF1 (11729649_at) / RFU, ZNF638 /// ZNF638-IT1 / Fold change vs veh, ZNF638 /// ZNF638-IT1 / RFU, PANK3 / Fold change vs veh, PANK3 / RFU, SH3YL1 / Fold change vs veh, SH3YL1 / RFU, ZEB2 / Fold change vs veh, ZEB2 / RFU, NRIP1 / Fold change vs veh, NRIP1 / RFU, PTTG1IP / Fold change vs veh, PTTG1IP / RFU, CAPN2 / Fold change vs veh, CAPN2 / RFU, MED14 / Fold change vs veh, MED14 / RFU, SNORA58 / Fold change vs veh, SNORA58 / RFU, C1orf63 / Fold change vs veh, C1orf63 / RFU, LRRFIP1 / Fold change vs veh, LRRFIP1 / RFU, NDUFAF7 / Fold change vs veh, NDUFAF7 / RFU, SLC12A2 / Fold change vs veh, SLC12A2 / RFU, IBTK / Fold change vs veh, IBTK / RFU, ESF1 / Fold change vs veh, ESF1 / Fold change vs veh, TMEM50B / RFU, TAOK1 / Fold change vs veh, TAOK1 / RFU, ACBD3 / Fold change vs veh, ACBD3 / RFU, TMA16 / Fold change vs veh, TMA16 / RFU, RWDD3 / Fold change vs veh, RWDD3 / RFU, BCAT1 / Fold change vs veh, BCAT1 / RFU, EDEM3 / Fold change vs veh, EDEM3 / RFU, TMEM33 / Fold change vs veh, TMEM33 / RFU, WDR75 / Fold change vs veh, WDR75 / RFU, AHCTF1 / Fold change vs veh, AHCTF1 / RFU, TFRC / Fold change vs veh, TFRC / RFU, ZDHHC17 / Fold change vs veh, ZDHHC17 / RFU, NOM1 / Fold change vs veh, NOM1 / RFU, ARL8B / Fold change vs veh, ARL8B / RFU, ZBTB11 / Fold change vs veh, ZBTB11 / RFU, TAMM41 / Fold change vs veh, TAMM41 / RFU, KIAA1704 /// LOC100996395 / Fold change vs veh, KIAA1704 /// LOC100996395 / RFU, ING1 / Fold change vs veh, ING1 / RFU, TRMT61B / Fold change vs veh, TRMT61B / RFU, FUBP3 / Fold change vs veh, FUBP3 / RFU, TP53 / Fold change vs veh, TP53 / RFU, TNKS2 / Fold change vs veh, TNKS2 / RFU, ZFP14 / Fold change vs veh, ZFP14 / RFU, ACTR2 / Fold change vs veh, ACTR2 / RFU, PPP3R1 / Fold change vs veh, PPP3R1 / RFU, PIK3R1 / Fold change vs veh, PIK3R1 / RFU, HNRNPA1 / Fold change vs veh, HNRNPA1 / RFU, RNF170 / Fold change vs veh, RNF170 / RFU, ZNF28 / Fold change vs veh, ZNF28 / RFU, RNGTT / Fold change vs veh, RNGTT / RFU, OGT / Fold change vs veh, OGT / RFU, BRD1 / Fold change vs veh, BRD1 / RFU, MARS / Fold change vs veh, MARS / RFU, ZNF655 / Fold change vs veh, ZNF655 / RFU, FAHD1 / Fold change vs veh, FAHD1 / RFU, BDP1 / Fold change vs veh, BDP1 / RFU, LRRCC1 / Fold change vs veh, LRRCC1 / RFU, ARID1A / Fold change vs veh, ARID1A / RFU, ZNF146 / Fold change vs veh, ZNF146 / RFU, ZNF330 / Fold change vs veh, ZNF330 / RFU, GPN3 / Fold change vs veh, GPN3 / RFU, C9orf123 / Fold change vs veh, C9orf123 / RFU, N4BP2L2 / Fold change vs veh, N4BP2L2 / RFU, ARFIP1 / Fold change vs veh, ARFIP1 / RFU, FAM179B / Fold change vs veh, FAM179B / RFU, BCL10 / Fold change vs veh, BCL10 / RFU, UHRF1BP1L / Fold change vs veh, UHRF1BP1L / RFU, BET1 / Fold change vs veh, BET1 / RFU, CNOT2 / Fold change vs veh, CNOT2 / RFU, ZNF268 / Fold change vs veh, ZNF268 / Fold change vs veh, ZNF507 / RFU, DGCR2 / Fold change vs veh, DGCR2 / RFU, WDSUB1 / Fold change vs veh, WDSUB1 / Fold change vs veh, HSP90B1 /// MIR3652 / RFU, ADSS / Fold change vs veh, ADSS / RFU, GK / Fold change vs veh, GK / RFU, ZNF148 / Fold change vs veh, ZNF148 / RFU, TAF9 / Fold change vs veh, TAF9 / RFU, SLC1A5 / Fold change vs veh, SLC1A5 / RFU, SLMO2 / Fold change vs veh, SLMO2 / RFU, ABCC4 / Fold change vs veh, ABCC4 / RFU, LOC101060439 /// RAP1B / Fold change vs veh, LOC101060439 /// RAP1B / RFU, RFX7 / Fold change vs veh, RFX7 / RFU, GTPBP10 / Fold change vs veh, GTPBP10 / RFU, CNEP1R1 / Fold change vs veh, CNEP1R1 / RFU, BIVM-ERCC5 /// ERCC5 / Fold change vs veh, BIVM-ERCC5 /// ERCC5 / RFU, ILF3 / Fold change vs veh, ILF3 / RFU 11762660_at / Fold change /veh 11762660_at / RFU VCAN (11757783_s_at) / Fold change /veh VCAN (11757783_s_at) / RFU DDX43 (11728927_at) / Fold change /veh DDX43 (11728927_at) / RFU KRT8 (11758188_x_at) / Fold change /veh KRT8 (11758188_x_at) / RFU NKD1 (11759106_at) / Fold change /veh NKD1 (11759106_at) / RFU SRD5A1 (11742802_a_at) / Fold change /veh SRD5A1 (11742802_a_at) / RFU TPSAB1 /// TPSB2 (11721975_s_at) / Fold change /veh TPSAB1 /// TPSB2 (11721975_s_at) / RFU GSTM3 (11746129_a_at) / Fold change /veh GSTM3 (11746129_a_at) / RFU IL23R (11737362_x_at) / Fold change /veh IL23R (11737362_x_at) / RFU TMEM51 (11727254_a_at) / Fold change /veh TMEM51 (11727254_a_at) / RFU PIWIL2 (11732686_x_at) / Fold change /veh PIWIL2 (11732686_x_at) / RFU ORM1 (11744905_x_at) / Fold change /veh ORM1 (11744905_x_at) / RFU CCDC152 (11743942_at) / Fold change /veh CCDC152 (11743942_at) / RFU ECM1 (11717891_a_at) / Fold change /veh ECM1 (11717891_a_at) / RFU IL23R (11748794_a_at) / Fold change /veh IL23R (11748794_a_at) / RFU TNFAIP8L3 (11732012_x_at) / Fold change /veh TNFAIP8L3 (11732012_x_at) / RFU MBOAT4 (11741988_at) / Fold change /veh MBOAT4 (11741988_at) / RFU 11764193_at / Fold change /veh 11764193_at / RFU TMEM53 (11763286_at) / Fold change /veh TMEM53 (11763286_at) / RFU MAGEB2 (11727129_at) / Fold change /veh MAGEB2 (11727129_at) / RFU TMEM200A (11744735_a_at) / Fold change /veh TMEM200A (11744735_a_at) / RFU CCDC152 (11751479_a_at) / Fold change /veh CCDC152 (11751479_a_at) / RFU FAM211A (11726209_a_at) / Fold change /veh FAM211A (11726209_a_at) / RFU RGS16 (11746705_a_at) / Fold change /veh RGS16 (11746705_a_at) / RFU VCAN (11755009_s_at) / Fold change /veh VCAN (11755009_s_at) / RFU RHOB (11743442_s_at) / Fold change /veh RHOB (11743442_s_at) / RFU RGS16 (11720943_a_at) / Fold change /veh RGS16 (11720943_a_at) / RFU RGS16 (11720944_at) / Fold change /veh RGS16 (11720944_at) / RFU, VPS4B / Fold change vs veh, VPS4B / RFU, CREB1 / Fold change vs veh, CREB1 / RFU, DNAJC13 / Fold change vs veh, DNAJC13 / RFU, GNAQ / Fold change vs veh, GNAQ / RFU, CDK5R1 / Fold change vs veh, CDK5R1 / RFU, ZRANB3 / Fold change vs veh, ZRANB3 / RFU, CUL4A / Fold change vs veh, CUL4A / RFU, CCNY / Fold change vs veh, CCNY / RFU, UFL1 / Fold change vs veh, UFL1 / RFU, COG3 / Fold change vs veh, COG3 / RFU, DIAPH2 / Fold change vs veh, DIAPH2 / RFU, SKA2 / Fold change vs veh, SKA2 / RFU, AFF3 / Fold change vs veh, AFF3 / RFU, LMF1 / Fold change vs veh, LMF1 / RFU, IPO11 / Fold change vs veh, IPO11 / RFU, DFFB / Fold change vs veh, DFFB / RFU, FOXP1 / Fold change vs veh, FOXP1 / RFU, CARD8 / Fold change vs veh, CARD8 / RFU, STRN3 / Fold change vs veh, STRN3 / RFU, ADK / Fold change vs veh, ADK / RFU, RASSF2 / Fold change vs veh, RASSF2 / RFU, WIPF1 / Fold change vs veh, WIPF1 / RFU, LARP1B / Fold change vs veh, LARP1B / RFU, RASA1 / Fold change vs veh, RASA1 / RFU, RB1 / Fold change vs veh, RB1 / RFU, PPFIA1 / Fold change vs veh, PPFIA1 / RFU, MAT2A / Fold change vs veh, MAT2A / RFU, CCT5 / Fold change vs veh, CCT5 / RFU, WDR92 / Fold change vs veh, WDR92 / RFU, CUX1 / Fold change vs veh, CUX1 / RFU, TTC7A / Fold change vs veh, TTC7A / RFU, TMEM135 / Fold change vs veh, TMEM135 / RFU, DEPTOR / Fold change vs veh, DEPTOR / RFU, CPM / Fold change vs veh, CPM / RFU, DNAJB6 / Fold change vs veh, DNAJB6 / RFU, CACNA2D3 / Fold change vs veh, CACNA2D3 / RFU, DTX4 / Fold change vs veh, DTX4 / RFU, TFCP2 / Fold change vs veh, TFCP2 / RFU, GMCL1 /// GMCL1P1 / Fold change vs veh, GMCL1 /// GMCL1P1 / RFU, AEBP2 / Fold change vs veh, AEBP2 / RFU, SNHG1 /// SNORD22 /// SNORD25 /// SNORD26 /// SNORD27 /// SNORD28 /// SNORD29 /// SNORD31 / Fold change vs veh, SNHG1 /// SNORD22 /// SNORD25 /// SNORD26 /// SNORD27 /// SNORD28 /// SNORD29 /// SNORD31 / Fold change (Aza/veh), C12orf56 (ProbeSet 11735607_a_at) / Fold change (ACY-1035/veh), C12orf56 (ProbeSet 11735607_a_at) / Fold change (Aza/veh), FGFR1OP (ProbeSet 11751329_s_at) / Fold change (ACY-1035/veh), FGFR1OP (ProbeSet 11751329_s_at) / Fold change (Aza/veh), VPS36 (ProbeSet 11739960_a_at) / Fold change (ACY-1035/veh), VPS36 (ProbeSet 11739960_a_at) / RFU SYPL1 (11715823_x_at) / Fold change /veh SYPL1 (11715823_x_at) / RFU IGFBP7 (11715501_s_at) / Fold change /veh IGFBP7 (11715501_s_at) / RFU REEP3 (11722064_at) / Fold change /veh REEP3 (11722064_at) / RFU IGLL1 (11728026_x_at) / Fold change /veh IGLL1 (11728026_x_at): dose or concentration left out as unconfirmed
Conditions: ProbeSet 11741123_x_at; LIST D

SMILES: Nc1ncn([C@@H]2O[C@H](CO)[C@@H](O)[C@H]2O)c(=O)n1 [azacitidine]
- Fold change vs veh, ADK: 0.72
